Assay results as given in patent US4696928A, “Substituted dihydroimidazo[1,2-a]quinoxalines” (G. D. Searle & Co., priority 1985, dated 1987).
Converted amounts (≈) assume the structure as drawn. “And” between values parts separate entries of the source, which are not always exact repeats. Equal values may be shown once. Read-outs that look alike come from different tables or passages of the source.

How the values were obtained:
[1] = test system: B. Fragilis ATCC 23745; conditions: for ED (1 log reduction): Bacteroides fragilis, ATCC23745, in Mus musculus, po
[2] = test system: B. fragilis MZ-R ATCC 11295; assay: MIC/MBC broth microdilution, strain D; assay type: cell-based; conditions: Bacteroides fragilis, ATCC11295, 48 h; for MBC: 99.9% reduction in viable count after 48 h
[3] = test system: Peptostreptococcus anaerobicus; assay: MIC vs. panel of anaerobes; assay type: cell-based; conditions: Peptostreptococcus anaerobicus; read-out: MIC
[4] = test system: B. fragilis NCTC 9343; assay: MIC/MBC broth microdilution, strain B; assay type: cell-based; conditions: Bacteroides fragilis, NCTC9343, 48 h; for MIC: 37° C., anaerobic; for MBC: 99.9% reduction in viable count after 48 h
[5] = test system: Clostridium difficile NCIB 10666; assay: MIC vs. panel of anaerobes; assay type: cell-based; conditions: Clostridioides difficile, NCIB10666
[6] = test system: Propionebacterium acnes NCTC 7337; assay: MIC vs. panel of anaerobes; assay type: cell-based
[7] = test system: Propionebecterium acnes NCTC 737; assay: MIC vs. panel of anaerobes; assay type: cell-based
[8] = test system: Clostridium perfringens NCTC 523; assay: microbe, parasite or virus in culture; assay type: cell-based; conditions: NCTC523
[9] = test system: Bacteroides melanogenicus NCTC 9336; assay: MIC vs. panel of anaerobes; assay type: cell-based; conditions: NCTC9336; Bacteroides melanogenicus NCTC 9336; read-out: MIC
[10] = test system: B. fragilis WS-1; assay: MIC/MBC broth microdilution, strain E; assay type: cell-based, Bacteroides fragilis; conditions: for MIC: 37° C., anaerobic; for MBC: 99.9% reduction in viable count after 48 h
[11] = test system: Campylobacter fetus ss.jejuni ATCC 29428; assay: MIC vs. panel of anaerobes; assay type: cell-based; conditions: ATCC29428
[12] = test system: Fusobacterium necrophorum ATCC 11295; assay: MIC vs. panel of anaerobes; assay type: cell-based; conditions: ATCC11295
[13] = test system: Clostridium perfringens NCTC 8237; assay: microbe, parasite or virus in culture; assay type: cell-based; conditions: NCTC8237
[14] = test system: Clostridium difficile Cytotoxic 1; assay: MIC vs. panel of anaerobes; assay type: cell-based; conditions: Clostridioides difficile
[15] = test system: B. fragilis NCTC 9344; assay: MIC/MBC broth microdilution, strain C; assay type: cell-based, Bacteroides fragilis; conditions: for MIC: 37° C., anaerobic; for MBC: 99.9% reduction in viable count after 48 h
[16] = test system: B. fragilis NCTC 10581; assay: MIC/MBC broth microdilution, strain A; assay type: cell-based; conditions: Bacteroides fragilis, NCTC10581, 48 h; for MIC: 37° C., anaerobic; for MBC: 99.9% reduction in viable count after 48 h
[17] = 48 h, read-out: Dose giving 1 log reduction, p.o., after infection and twice daily for 2 days, 1 log (90%) reduction of CFU/ml liver homogenate vs untreated, compound of Example
[18] = Bacteroides fragilis, WS1, 48 h, read-out: MIC
[19] = Bacteroides fragilis, WS1, 48 h
[20] = Fusobacterium necrophorum ATCC 11295, read-out: MIC
[21] = Bacteroides fragilis, NCTC9344, 48 h, read-out: MIC
[22] = Bacteroides fragilis, NCTC9344, 48 h, read-out: MBC
[23] = Bacteroides fragilis, WS1, 48 h, 48 h
[24] = Bacteroides fragilis, NCTC9344, 48 h, 48 h
[25] = Clostridium difficile NCIB 10666, read-out: MIC

Row | Compound | ED (1 log reduction) [1, 17] | MIC [2] | MBC ([2]; strain D (MZ-R)) | MIC [3] | MIC ([4]; read-out: MIC) | MBC [4] | MIC [6] | MIC [7] | MIC [8] | MIC [9] | MBC [10, 19] | MIC [11] | MIC [12, 20] | MIC [13] | MIC [14] | MIC [15, 21] | MBC [15, 22] | MIC ([16]; read-out: MIC) | MBC [16] | MIC [5, 25] | also measured
1 | [O-][N+]1=C(c2ccccc2)C2=NCCN2c2cc(F)c(F)cc21 [Example 2, 1,2-Dihydro-7,8-difluoro-4-phenylimidazo[1,2-a]quinoxaline 5-oxide] | < 40 mg/kg | 0.08 µg/mL (≈ 0.267 µM) | 0.15 µg/mL (≈ 0.501 µM) | 12.5 µg/mL (≈ 41.8 µM) | 0.15 µg/mL (≈ 0.501 µM) | 0.15 µg/mL (≈ 0.501 µM) | 25 µg/mL (≈ 83.5 µM) | 25 µg/mL (≈ 83.5 µM) | 6.2 µg/mL (≈ 20.7 µM) | 6.2 µg/mL (≈ 20.7 µM) | 0.6 µg/mL (≈ 2 µM) | 12.5 µg/mL (≈ 41.8 µM) | 3.1 µg/mL (≈ 10.4 µM) | 6.2 µg/mL (≈ 20.7 µM) | 6.2 µg/mL (≈ 20.7 µM) | 0.6 µg/mL (≈ 2 µM) | 0.6 µg/mL (≈ 2 µM) | 0.6 µg/mL (≈ 2 µM) | 0.6 µg/mL (≈ 2 µM) | – | MIC [5]: < 0.8 µg/mL; MIC [10, 18]: 0.6 µg/mL (≈ 2 µM)
2 | Cc1ncc([N+](=O)[O-])n1CCO [Metronidazole, reference compound] | – | 3.1 µg/mL (≈ 18.1 µM) | – | > 100 µg/mL | 0.6 µg/mL (≈ 3.51 µM) | – | > 100 µg/mL | > 100 µg/mL | < 0.8 µg/mL | > 100 µg/mL | – | > 100 µg/mL | 6.2 µg/mL (≈ 36.2 µM) | 1.5 µg/mL (≈ 8.76 µM) | < 0.8 µg/mL | 0.6 µg/mL (≈ 3.51 µM) | 0.6 µg/mL (≈ 3.51 µM) | 0.6 µg/mL (≈ 3.51 µM) | 0.8 µg/mL (≈ 4.67 µM) | – | reduction in B. fragilis ([1]; 40 mg/kg (p.o.)): 3-3.5 log10; ED (1 log reduction) ([1]; read-out: Dose giving 1 log reduction, Metronidazole, p.o., positive control beside the compound of the same line): 1.64 mg/kg; MIC ([4]; 48 h): 0.8 µg/mL (≈ 4.67 µM); MIC ([10]; 48 h): < 0.8 µg/mL and 0.8 µg/mL; MIC [10, 23]: 1.5 µg/mL (≈ 8.76 µM); MBC [15]: 0.8 µg/mL and < 0.8 µg/mL; MIC ([15]; 48 h): 0.8 µg/mL (≈ 4.67 µM); MIC [15, 24]: < 0.8 µg/mL; MIC ([16]; 48 h): < 0.8 µg/mL
3 | [O-][N+]1=C(c2ccccc2)C2=NCCN2c2cc(N3CCN(c4ccccc4)CC3)ccc21 [Example 8, 1,2-Dihydro-4-phenyl-8-(4-phenylpiperazinyl)imidazo[1,2-a]quinoxaline 5-oxide] | – | < 0.8 µg/mL | – | > 100 µg/mL | 1.5 µg/mL (≈ 3.54 µM) | – | > 100 µg/mL | > 100 µg/mL | 1.5 µg/mL (≈ 3.54 µM) | > 100 µg/mL | – | > 100 µg/mL | 3.1 µg/mL (≈ 7.32 µM) | 3.1 µg/mL (≈ 7.32 µM) | < 0.8 µg/mL | – | – | 1.5 µg/mL (≈ 3.54 µM) | – | < 0.8 µg/mL | MIC [10, 23]: 3.1 µg/mL (≈ 7.32 µM); MIC [15, 24]: < 0.8 µg/mL
4 | [O-][N+]1=C(c2ccccc2)C2=NCCN2c2nc(Cl)ccc21 [Example 3, 8-Chloro-1,2-dihydro-4-phenylimidazo[1,2-a]pyrido[3,2-e]-pyrazine 5-oxide] | < 40 mg/kg | 3.1 µg/mL (≈ 10.4 µM) | 3.1 µg/mL (≈ 10.4 µM) | 50 µg/mL (≈ 167 µM) | 12.5 µg/mL (≈ 41.8 µM) | 12.5 µg/mL (≈ 41.8 µM) | 100 µg/mL (≈ 335 µM) | > 100 µg/mL | 6.2 µg/mL (≈ 20.8 µM) | 100 µg/mL (≈ 335 µM) | 6.2 µg/mL (≈ 20.8 µM) | 50 µg/mL (≈ 167 µM) | 6.2 µg/mL (≈ 20.8 µM) | 25 µg/mL (≈ 83.7 µM) | < 0.8 µg/mL | 6.2 µg/mL (≈ 20.8 µM) | 6.2 µg/mL (≈ 20.8 µM) | 12.5 µg/mL (≈ 41.8 µM) | 12.5 µg/mL (≈ 41.8 µM) | < 0.8 µg/mL | MIC [10, 18]: 6.2 µg/mL (≈ 20.8 µM)
5 | [O-][N+]1=C(c2ccccc2)C2=NCCN2c2cc(N3CCN(Cc4ccccc4)CC3)ccc21 [Example 6, 1,2-Dihydro-4-phenyl-8-(4-phenylmethylpiperazinyl)imidazo[1,2-a]quinoxaline5-oxide] | 6.27 mg/kg | – | 25 µg/mL (≈ 57.1 µM) | 100 µg/mL (≈ 229 µM) | 50 µg/mL (≈ 114 µM) | 50 µg/mL (≈ 114 µM) | 50 µg/mL (≈ 114 µM) | 50 µg/mL (≈ 114 µM) | 12.5 µg/mL (≈ 28.6 µM) | 50 µg/mL (≈ 114 µM) | 25 µg/mL (≈ 57.1 µM) | 100 µg/mL (≈ 229 µM) | – | 12.5 µg/mL (≈ 28.6 µM) | 3.1 µg/mL (≈ 7.08 µM) | – | 25 µg/mL (≈ 57.1 µM) | 25 µg/mL (≈ 57.1 µM) | 25 µg/mL (≈ 57.1 µM) | < 0.8 µg/mL | MIC ([2]; strain D (MZ-R), 48 h, 37° C., anaerobic, read-out: MIC): 25 µg/mL (≈ 57.1 µM); MIC [10, 18]: 25 µg/mL (≈ 57.1 µM); MIC ([12]; Fusobacterium necrophorum): 12.5 µg/mL (≈ 28.6 µM); MIC [15, 24]: 12.5 µg/mL (≈ 28.6 µM)
6 | [O-][N+]1=C(c2ccccc2)C2=NCCN2c2cc(F)ccc21 [Example 1, 1,2-Dihydro-8-fluoro-4-phenylimidazo[1,2-a]quinoxaline 5-oxide] | 7.57 mg/kg | 0.8 µg/mL (≈ 2.84 µM) | 1.5 µg/mL (≈ 5.33 µM) | 25 µg/mL (≈ 88.9 µM) | – | 3.1 µg/mL (≈ 11 µM) | 50 µg/mL (≈ 178 µM) | 50 µg/mL (≈ 178 µM) | 3.1 µg/mL (≈ 11 µM) | 25 µg/mL (≈ 88.9 µM) | 3.1 µg/mL (≈ 11 µM) | 2.5 µg/mL (≈ 8.89 µM) | < 0.8 µg/mL | 3.1 µg/mL (≈ 11 µM) | < 0.8 µg/mL | 1.5 µg/mL (≈ 5.33 µM) | 1.5 µg/mL (≈ 5.33 µM) | – | 3.1 µg/mL (≈ 11 µM) | < 0.8 µg/mL | MIC ([4]; 48 h): 3.1 µg/mL (≈ 11 µM); MIC [10, 23]: 3.1 µg/mL (≈ 11 µM); MIC ([16]; 48 h): 3.1 µg/mL (≈ 11 µM)
